Assay [1] concerns phosphorylated STAT3 signal. The experiment in a line: Intracellular leptin sensitivity in hypothalamic organ culture (phosphorylated STAT3 immunostaining). It is filed as cell-based. To be noted: peptide 100 μM preincubation 24 hours, leptin 30 nM 1 hour. How it is done:
Subsequently, formalin fixation was performed and the phosphorylated STAT3 signal was detected by an immunostaining chemistry method (N=6-7). […] The data were analyzed by one-way analysis of variance, followed by multiple comparisons by Tukey's test. […] The error bars represent standard error (n=6-8).

The nature of assay [2]: High-fat diet intake after oral administration under overnight fasting. The format is in vivo. As to conditions: male mice raised on high-fat diet (60% kcal fat). How it is done: Male mice raised on a high-fat diet (60% kcal fat) were orally administered with the digested product under overnight fasting conditions, and the amount of food intake was measured over time (N=14-15). […] The data were analyzed by two-way analysis of variance, followed by multiple comparisons by Tukey's test. […] The error bars represent standard error (n=14-15).
The data were analyzed by two-way analysis of variance, followed by multiple comparisons by Tukey's test. […] The error bars represent standard error (n=9).
Male mice raised on a high-fat diet (60% kcal fat) were orally administered with Rubisco-derived peptide YHIEPV under overnight fasting conditions, and the amount of food intake was measured over time (N=11). […] The data were analyzed by two-way analysis of variance, followed by multiple comparisons by the Bonferroni test. […] The error bars represent standard error (n=11).
The data were analyzed by two-way analysis of variance, followed by multiple comparisons by Tukey's test. […] The error bars represent standard error (n=7-8).
The data were analyzed by two-way analysis of variance, followed by multiple comparisons by Tukey's test. In FIG. 10, the error bars represent standard error (n=5-7).

For assay [3], the system named is Active Rap1. The experiment in a line: Active Rap1 pull-down assay in brain. It is filed as in vivo, mice. To be noted: 0.3 mg/kg oral for 5 days. How it is done: (§1) Male mice were raised for at least one month on a high-fat diet (60% kcal fat) and were orally administered with YHIEPV (0.3 mg/kg) for 5 days, and hypothalamic and brain samples were then collected. The expression levels of genes associated with leptin resistance (SOCS-3, PTP1B, and TCPTP) and inflammatory cytokines (IL-6, IL1β, TNFα) in the hypothalamus were measured by RT-qPCR. Active Rap1 in the brain was quantified by using the Active Rap1 Pull-down assay kit and the Detection Kit according to the manufacturer's protocol (N=4). […] The data were analyzed by t-test. […] The error bars represent standard error (n=4).

Assay [4] is described as follows: Long-term oral administration: body weight gain caused by high-fat diet. It is filed as in vivo. As to conditions: 0.3 mg/kg oral once a day, male mice on high-fat diet. How it is done: Male mice raised for at least one month on a high-fat diet (60% kcal fat) were orally administered with YHIEPV (0.3 mg/kg) once a day. The body weight and the amount of food intake were measured daily, and the amount of food intake was calculated as cumulative food intake (N=10). […] The data were analyzed by two-way analysis of variance, followed by multiple comparisons by the Bonferroni test. […] The error bars represent standard error (n=10).

The target of assay [5] is T1, MC4 receptor (Mus musculus, UniProt P56450).
T1 construct: from tissue; host or cells: living male mice (whole animal)
T1 sequence (P56450 whole entry): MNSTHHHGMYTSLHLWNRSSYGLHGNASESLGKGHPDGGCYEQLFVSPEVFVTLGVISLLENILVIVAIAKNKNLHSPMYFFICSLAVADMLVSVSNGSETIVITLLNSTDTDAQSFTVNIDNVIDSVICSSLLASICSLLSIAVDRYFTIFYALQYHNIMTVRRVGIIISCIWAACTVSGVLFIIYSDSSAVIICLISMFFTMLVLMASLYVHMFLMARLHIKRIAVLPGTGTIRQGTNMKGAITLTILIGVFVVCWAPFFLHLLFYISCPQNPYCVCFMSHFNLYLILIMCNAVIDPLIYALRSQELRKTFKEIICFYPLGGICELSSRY
The experiment in a line: Impact of HS024 on high-fat diet intake suppression induced by oral YHIEPV. The format is in vivo, mice. As to conditions: YHIEPV oral plus HS024 intracerebroventricular; food intake 4 hours later. The procedure:
(§2) Male mice raised on a high-fat diet (60% kcal fat) were administered under overnight fasting conditions with YHIEPV (oral administration) and naltrindole (intraperitoneal administration), which is a δ opioid receptor inhibitor, or HS024 (intracerebroventricular administration), which is an MC4 receptor inhibitor, and the amount of food intake was measured 4 hours later (N=13-15). The δ opioid receptor and MC4 receptor are receptors involved in feeding behavior. […] The data were analyzed by one-way analysis of variance, followed by multiple comparisons by Tukey's test. […] The error bars represent standard error (n=13-15).

Assay [6] deals with T2, δ opioid receptor (Mus musculus, UniProt P32300).
T2 construct: from tissue; host or cells: living male mice (whole animal)
T2 sequence (P32300 whole entry): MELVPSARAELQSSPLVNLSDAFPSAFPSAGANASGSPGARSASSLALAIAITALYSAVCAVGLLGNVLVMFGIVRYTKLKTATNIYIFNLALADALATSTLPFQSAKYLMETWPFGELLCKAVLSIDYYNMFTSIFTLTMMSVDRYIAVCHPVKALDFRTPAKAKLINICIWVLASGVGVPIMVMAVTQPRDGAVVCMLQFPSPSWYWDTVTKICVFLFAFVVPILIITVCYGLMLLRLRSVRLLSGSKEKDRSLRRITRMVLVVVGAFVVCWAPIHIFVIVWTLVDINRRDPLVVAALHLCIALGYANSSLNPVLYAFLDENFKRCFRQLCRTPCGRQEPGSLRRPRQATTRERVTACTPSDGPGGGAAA
The experiment in a line: Impact of naltrindole on high-fat diet intake suppression induced by oral YHIEPV. The format is in vivo, mice. As to conditions: YHIEPV oral plus naltrindole intraperitoneal; food intake 4 hours later. How it is done: as §2

For assay [7], the system named is TNFα. The experiment in a line: Hypothalamic gene expression by RT-qPCR after high-fat diet. The format is in vivo, mice. To be noted: hypothalamus, 0.3 mg/kg oral for 5 days. How it is done: as §1
A general note: Quantitative PCR measures a nucleic acid by following its amplification.

For assay [8], the system named is TCPTP. The description is as above. The format is in vivo, mice. To be noted: hypothalamus, 0.3 mg/kg oral for 5 days. The procedure: as §1
The test system of assay [9] is SOCS-3. The assay is described as above. The format is in vivo, mice. To be noted: hypothalamus, 0.3 mg/kg oral for 5 days. The procedure: as §1
The test system of assay [10] is IL1β. The assay is described as above. It is filed as in vivo, mice. To be noted: hypothalamus, 0.3 mg/kg oral for 5 days. How it is done: as §1
Assay [11] concerns IL-6. The assay is described as above. As to conditions: hypothalamus, 0.3 mg/kg oral for 5 days. The format is in vivo, mice. How it is done: as §1
The subject of assay [12] is PTP1B. The assay is described as above. It is filed as in vivo, mice. As to conditions: hypothalamus, 0.3 mg/kg oral for 5 days. The procedure:
as §1

In assay [13] the test system is leptin. Put plainly: Serum leptin level by ELISA after five-week oral administration. The format is in vivo, mice. As to conditions: after five-week oral administration 0.3 mg/kg. How it is done:
(§3) After the five-week oral administration of YHIEPV in Test Example 4, the blood was collected under anesthesia. Subsequently, the blood was centrifuged, and the serum was collected. The leptin level in the serum was determined by ELISA (according to the manufacturer's protocol) (N=10). The fat mass (peritesticular fat and mesenteric fat) was also measured at the same time as blood sampling (N=9). […] The data were analyzed by t-test. […] The error bars represent standard error (n=9-10).
On the technique in general: An ELISA detects its analyte on a solid surface through an enzyme-linked reagent.

Assay [14] in a line: Fat mass (peritesticular and mesenteric fat) after five-week oral administration. It is filed as in vivo, mice. To be noted: after five-week oral administration 0.3 mg/kg. How it is done:
as §3

A short description of assay [15]: Anti-obesity effect of intracerebroventricularly administered leptin with oral YHIEPV. The format is in vivo, mice. As to conditions: YHIEPV 0.3 mg/kg oral, leptin 0.5 μg intracerebroventricular. The procedure:
A guide cannula was placed in the lateral ventricle of male mice raised on a high-fat diet (60% kcal fat) for at least one month, and a recovery period of at least 1 week was then provided. Subsequently, the body weight change and the amount of food intake were measured after the addition of YHIEPV (0.3 mg/kg, oral administration) and leptin (0.5 μg, intracerebroventricular administration) (N=10-12). […] The data were analyzed by two-way analysis of variance, followed by multiple comparisons by Tukey's test. […] The error bars represent standard error (n=10-12).

For assay [16] the following is noted: previously discovered, PTL 2; cited from earlier work.
Assay [17] deals with phosphorylated STAT3 signal. The experiment in a line: Leptin resistance induced by Forskolin (Rap1 pathway stimulation) in hypothalamic organ culture. The format is cell-based. To be noted: Forskolin 20 μM and YHIEPV 100 μM 6 hours, leptin 60 nM 1 hour. The procedure:
A hypothalamic organ culture system was preincubated with Forskolin (20 μM) and YHIEPV (100 μM) for 6 hours, followed by leptin stimulation (60 nM) for 1 hour. Subsequently, formalin fixation was performed and the phosphorylated STAT3 signal was detected by an immunostaining chemistry method (N=6-7). Forskolin is known to induce leptin resistance via the Rap1 activation pathway. […] The data were analyzed by one-way analysis of variance, followed by multiple comparisons by Tukey's test. […] The error bars represent standard error (n=5-9).

The values below come from patent US20240301001A1, “PEPTIDE-CONTAINING COMPOSITION” (Kyoto University, priority 2021, published 2024).

As for YHIEPV (listed as Spinacia oleracea), in assay [1], the “intracellular leptin sensitivity in the hypothalamus” value is “enhanced”. Also, in assay [2], the “high-fat diet intake (amount of food intake over time)” value is on record as “suppressed high-fat diet intake”. For the same substance, in assay [3], the “expression level of active Rap1” value is on record as “significantly decreased”. In assay [4], the “body weight gain caused by a high-fat diet” value was “suppressed body weight gain”. Also, the “effect of suppressing high-fat diet intake in presence of MC4 receptor inhibitor” value in assay [5] is on record as “inhibited”. In assay [6], the “effect of suppressing high-fat diet intake in presence of δ opioid receptor inhibitor” value is “inhibited”. In addition, in [7], the “expression level of TNFα” value is listed as “decreasing trend”. Also, the “expression level of TCPTP” value in assay [8] is “significantly decreased”. Also, the “expression level of SOCS-3” value in [9] was “significantly decreased”. Moreover, in assay [10], the “expression level of IL1β” value is recorded as “significantly decreased”. Moreover, the “expression level of IL-6” value in assay [11] was “decreasing trend”. The “expression level of PTP1B” value in [12] is recorded as “decreasing trend”. In addition, the blood leptin level result in assay [13] is recorded as “decreased”. Besides, the fat mass result in assay [14] is listed as “trend toward decrease”. Also, the “anti-obesity effect of intracerebroventricularly administered leptin (body weight change, food intake)” value in assay [15] is listed as “enhanced”. For the same substance, the anxiolytic effect result in [16] is “anxiolytic effect”. Moreover, the “leptin resistance induced by Forskolin” value in assay [17] is given as “improved”.
On to “YKLTY (listed as Spinacia oleracea) [Rubisco-derived peptide, synthesized by solid-phase Fmoc method; contained in green leaf Rubisco digested product B]”, for which the “intracellular leptin sensitivity in the hypothalamus” value in [1] is reported as “enhanced”. In addition, the “high-fat diet intake (amount of food intake over time)” value in assay [2] was “suppressed high-fat diet intake”.
